In one data set the test system is murine cancer model. The settings on record: cited from earlier work.
Data set [1] deals with Huh7.5 cells. As to the kind of experiment: Cell viability, CellTiter-Glo luminescent assay. The settings on record: for Cell viability (fold DMSO) Mean: deconvolution screen, singletons, 50 µM, uninfected Huh7.5. In general terms: ATP-based viability assays read luminescence as a measure of living cells.
The subject of the next data set is HCV, strain JFH-1. The data set is classed as cell-based, hepatitis C virus. The settings on record: 50 μM, JFH-1-Luc, Huh7.5, 2 days.
Data set [2] relates to DENV2 16681s. As to the kind of experiment: Infectious viral titer by plaque assay, wild-type DENV2 in Huh7.5 cells. It is filed as cell-based, Dengue virus. The note with it: 50 μM, MOI 0.1, Huh7.5, 2 days postinfection.
For a further data set, the system named is WNV NY99. The data set can be described thus: Extracellular infectious titer by plaque assay, WNV in Huh7.5 cells. It is filed as cell-based, West Nile virus. The note with it: 50 μM, MOI 0.1, Huh7.5, 2 days postinfection.
Data set [3] relates to DENV-R2A (Rluc-expressing DENV, serotype 2 strain 16681). The data set can be described thus: microbe, parasite or virus in culture. It is filed as cell-based, Dengue virus.
Data set [4] concerns the target ZIKV NS3/NS4B interaction (Zika virus, UniProt A0A024B7W1). As to the kind of experiment: Coimmunoprecipitation assay of NS3/NS4B interaction. The note with it: unpublished data.
A further data set deals with ZIKV H/PF/2013. The data set can be described thus: Infectious viral titer by plaque assay, ZIKV in Huh7.5 cells. It is filed as cell-based, Zika virus. The note with it: 50 μM, MOI 0.1, Huh7.5, 2 days postinfection.
Data set [5] relates to ZIKV-R2A (strain FSS13025). As to the kind of experiment: microbe, parasite or virus in culture. It is filed as cell-based. The note with it: Zika virus, Huh7.5, 48 h; for activity at 50 µM: read-out: ZIKV-R2A replication (fold DMSO) Mean.
The subject of the next data set is DENV-R2A. It is filed as cell-based, Dengue virus. The note with it: 50 μM.
Data set [6] deals with DENV vesicle packets (VP). The data set can be described thus: Replication-independent vesicle packet induction (pIRO-D) in Huh7/Lunet-T7 cells, TEM, western blot, immunofluorescence. The note with it: 50 μM for 12 h, pIRO-D-transfected Huh7/Lunet-T7. In general terms: Immunoblotting shows a protein as a band on a membrane.
A further data set relates to SARS-CoV-2. The data set is classed as cell-based.
The next data set has as its system MHV-A59. As to the kind of experiment: Infectious viral titer by plaque assay, MHV-A59 in DBT cells. The data set is classed as cell-based, mouse hepatitis virus. The note with it: 50 μM, MOI 0.0001, 1 day postinfection.
Data set [7] concerns DENV2 16681s. As to the kind of experiment: Intracellular DENV vRNA (RT-qPCR) and NS4B (western blot) in infected Huh7.5 cells. It is filed as cell-based, Dengue virus. The settings on record: 50 μM, MOI 0.1, Huh7.5, 2 days postinfection. (In general: Quantitative PCR measures a nucleic acid by following its amplification.)
The subject of data set [8] is DENV-R2A (Rluc-expressing DENV, serotype 2 strain 16681). The note with it: same experimental set-up; cited from earlier work.
Data set [9] relates to Huh7.5 cells. Details: method as in PMID 34152811. The note with it: same experimental set-up; cited from earlier work.
The test system of data set [10] is ZIKV-R2A (strain FSS13025). The settings on record: same experimental set-up; cited from earlier work.
The mark [11] stands for this setting: Dengue virus, Huh7.5, 48 h, read-out: DENV-R2A replication (fold DMSO) Mean, deconvolution screen, singletons, 50 µM, Huh7.5, 2 days postinfection.

pEC50: −log10 of the molar value. Read-outs that look alike come from different tables or passages of the source.

As a reminder, the pEC50 is the negative decadic logarithm of the EC50, by convention in mol/L. As usually defined, the CC50 is the concentration giving 50% cytotoxicity.

Sequence of ZIKV NS3/NS4B interaction (A0A024B7W1 1503-2119): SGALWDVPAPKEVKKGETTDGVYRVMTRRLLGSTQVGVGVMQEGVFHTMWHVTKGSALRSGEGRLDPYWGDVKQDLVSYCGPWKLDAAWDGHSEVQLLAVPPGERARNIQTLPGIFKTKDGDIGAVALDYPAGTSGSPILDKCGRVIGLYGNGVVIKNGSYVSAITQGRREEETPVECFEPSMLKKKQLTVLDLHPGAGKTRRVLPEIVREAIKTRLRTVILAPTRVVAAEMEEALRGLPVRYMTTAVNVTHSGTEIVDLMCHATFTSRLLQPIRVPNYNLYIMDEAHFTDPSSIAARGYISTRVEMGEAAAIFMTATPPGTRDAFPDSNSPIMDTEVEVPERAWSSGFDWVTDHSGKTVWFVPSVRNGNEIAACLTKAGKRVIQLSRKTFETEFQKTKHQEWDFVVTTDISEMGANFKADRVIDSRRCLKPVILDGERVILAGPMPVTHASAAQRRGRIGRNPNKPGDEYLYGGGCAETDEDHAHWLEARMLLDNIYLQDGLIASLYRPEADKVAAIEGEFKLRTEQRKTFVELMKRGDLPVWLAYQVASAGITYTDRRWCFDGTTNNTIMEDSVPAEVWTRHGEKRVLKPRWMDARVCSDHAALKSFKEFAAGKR
Sequence of ZIKV NS3/NS4B interaction (A0A024B7W1 2270-2520): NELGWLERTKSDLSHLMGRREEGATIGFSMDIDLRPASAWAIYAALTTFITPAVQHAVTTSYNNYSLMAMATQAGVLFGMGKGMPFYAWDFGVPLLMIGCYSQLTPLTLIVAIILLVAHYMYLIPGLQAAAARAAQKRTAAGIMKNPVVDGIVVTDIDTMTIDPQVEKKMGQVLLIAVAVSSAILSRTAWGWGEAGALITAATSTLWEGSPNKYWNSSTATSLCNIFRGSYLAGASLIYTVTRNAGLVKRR

In the case of `NC(=O)c1ccccc1NC(=O)c1ccc(-c2ccccc2)cc1` [N-(2-[aminocarbonyl]phenyl) (1,1′-biphenyl)-4-carboxamide], in the data set on murine cancer model, the “efficacy in in vivo murine cancer model” value is recorded as “effective” and the “toxicity in in vivo murine cancer model” value was “without observable toxicity”.

For the compound `O=C(Nc1ccccc1)c1cccnc1` [NPP3C, N-phenylpyridine-3-carboxamide], the “cell viability / cytotoxicity at the used concentration” value in the data set with Huh7.5 cells [1] (50 μM, Huh7.5) is on record as “unaffected”. The “impact on HCV replication” value in the data set on HCV, strain JFH-1 is listed as “did inhibit”. Also, in the data set on DENV2 16681s [2], the “abundance of released virions (plaque assay)” value is “reduced”. For the same compound, the “decrease of WNV extracellular infectious titers” value in the data set with WNV NY99 is 22 fold. For the same compound, the “decrease of viral replication (DENV-R2A)” value in data set [3] (50 μM, Huh7.5, 2 days postinfection, vs DMSO) is reported as 55 fold. The activity at 50 µM came out at 1.31% in [3] (Dengue virus, Huh7.5, 48 h, read-out: DENV-R2A replication (Fold DMSO), Table S3, NPP3C analogues, 50 µM, Huh7.5, 2 days postinfection); 2.38% in [3] (setting [11]); 1% in [3] (Dengue virus, Huh7.5, 48 h, read-out: DENV-R2A replication (fold DMSO), Table 1, NPP3C analogues, 50 μM, Huh7.5, 2 days postinfection); 27% in data set [5]. The pEC50 in data set [3] (Dengue virus, Huh7.5, 48 h, read-out: EC50 DENV-R2A) was 5.15; in [5] (read-out: EC50 ZIKV-R2A FSS13025), 4.82. In addition, the “formation and stability of ZIKV NS3/NS4B interaction” value in data set [4] was “do not inhibit”. For the same compound, the “reduction in ZIKV viral titers” value in the data set on ZIKV H/PF/2013 was roughly 15 fold. Further, the “inhibitory activity when added after infection” value is listed as “retain their full inhibitory activity” in the data set on DENV-R2A (added 4 h after infection) and “retained a strong inhibitory activity” with DENV-R2A (added up to 8 h after infection, read 2 days postinfection). Besides, the “levels of viral protein NS3 (western blot)” value in data set [6] is “remained unchanged”. Further, the “anti-SARS-CoV-2 activity (reduction)” value with SARS-CoV-2 is “less than 10 fold”. Moreover, the “impact on MHV replication” value with MHV-A59 was “did not impede”. Moreover, in the data set on DENV2 16681s [7], the “intracellular levels of DENV vRNA and NS4B” value was “decrease”.

Turning to `OCc1cccc(CO)n1` [PS-5751, OCc1cccc(CO)n1], the “Cell viability (fold DMSO) Mean” value in the data set on Huh7.5 cells [1] is reported as 0.90 fold DMSO. Moreover, the results for the activity at 50 µM in [3] (setting [11]) and in data set [5] were 100% and 113%, respectively.

As for `Nc1cccnc1Cl` [PS-5762, Nc1cccnc1Cl], in the data set on Huh7.5 cells [1], the “Cell viability (fold DMSO) Mean” value is 1.10 fold DMSO. For the same compound, the figures for the activity at 50 µM in data set [3] (setting [11]) and in [5] were 106% and 109%, respectively.

As for `N#Cc1cccc(O)c1` [PS-5804, Oc1cccc(c1)C#N], the “Cell viability (fold DMSO) Mean” value in the data set on Huh7.5 cells [1] came out at 1.16 fold DMSO. Further, the activity at 50 µM turned out to be 102% in data set [3] (setting [11]) and 115% in data set [5].

Take `CC1(C)CC(O)CC(C)(C)N1` [PS-5856, CC1(C)CC(O)CC(C)(C)N1]: the “Cell viability (fold DMSO) Mean” value with Huh7.5 cells [1] worked out at 1.06 fold DMSO. In addition, the figures for the activity at 50 µM in data set [3] (setting [11]) and in data set [5] were 97% and 110%, respectively.

On to `OC[C@@H]1Cc2ccccc2CN1` [PS-6029, OC[C@@H]1Cc2ccccc2CN1], for which, in the data set with Huh7.5 cells [1], the “Cell viability (fold DMSO) Mean” value is given as 0.97 fold DMSO. Also, the activity at 50 µM in [3] (setting [11]) came out at 99%; in data set [5] it was 114%.

As to `Nc1cnccc1Cl` [PS-6061, Nc1cnccc1Cl], the “Cell viability (fold DMSO) Mean” value in the data set with Huh7.5 cells [1] was found to be 1.04 fold DMSO. The activity at 50 µM in [3] (setting [11]) and in data set [5] was 102% in each case.

As for `Brc1cnc(N2CCCC2)nc1` [PS-6092, Brc1cnc(nc1)N2CCCC2], the “Cell viability (fold DMSO) Mean” value with Huh7.5 cells [1] was 1.11 fold DMSO. The activity at 50 µM in [3] (setting [11]) was determined as 105%; in data set [5], 103%.

On to `C[C@@H](O)c1cccc(C(F)(F)F)c1` [PS-6325, C[C@@H](O)c1cccc(c1)C(F)(F)F], for which, in the data set with Huh7.5 cells [1], the “Cell viability (fold DMSO) Mean” value was determined as 1.07 fold DMSO. Also, the activity at 50 µM is 103% in data set [3] (setting [11]) and 108% in data set [5].

As to `O=C(O)C(O)c1cc(F)cc(F)c1` (stereo not drawn) [PS-6482, OC(C(=O)O)c1cc(F)cc(F)c1], the “Cell viability (fold DMSO) Mean” value in the data set with Huh7.5 cells [1] is on record as 1.08 fold DMSO. Besides, the activity at 50 µM in [3] (setting [11]) was 101%; in [5], 110%.

Turning to `CC(=O)Nc1ccc(OC(F)F)cc1` [PS-6506, CC(=O)Nc1ccc(OC(F)F)cc1], the “Cell viability (fold DMSO) Mean” value in the data set on Huh7.5 cells [1] is listed as 1.10 fold DMSO. Moreover, the activity at 50 µM is 105% in data set [3] (setting [11]) and 110% in [5].

As for `O=C1CCNc2c(F)cccc21` [PS-6636, Fc1cccc2C(=O)CCNc12], the “Cell viability (fold DMSO) Mean” value in the data set with Huh7.5 cells [1] worked out at 1.14 fold DMSO. For the same compound, the activity at 50 µM in [3] (setting [11]) was found to be 87%; in data set [5] it was 86%.

`Fc1cc(F)cc(-c2ccno2)c1` [PS-6845, Fc1cc(F)cc(c1)c2oncc2]: the “Cell viability (fold DMSO) Mean” value in the data set with Huh7.5 cells [1] came to 1.15 fold DMSO. Besides, the activity at 50 µM in data set [3] (setting [11]) came to 100%; in data set [5], 111%.

With `COc1cc(F)c(C#N)c(F)c1` [PS-6866, COc1cc(F)c(C#N)c(F)c1], in the data set on Huh7.5 cells [1], the “Cell viability (fold DMSO) Mean” value turned out to be 1.01 fold DMSO. The activity at 50 µM in [3] (setting [11]) is 97%; in data set [5], 115%.

As to `OCC1(c2ccc(Cl)cc2)CC1` [RS-1014, OCC1(CC1)c2ccc(Cl)cc2], the “Cell viability (fold DMSO) Mean” value in the data set on Huh7.5 cells [1] turned out to be 1.07 fold DMSO. The activity at 50 µM is 84% in [3] (setting [11]) and 93% in data set [5].

As to `COc1ccccc1N1CCNC(C)C1` (stereo not drawn) [SS-2433, COc1ccccc1N2CCNC(C)C2], the “Cell viability (fold DMSO) Mean” value in the data set with Huh7.5 cells [1] was 1.09 fold DMSO. In addition, the figures for the activity at 50 µM in data set [3] (setting [11]) and in [5] were 82% and 94%, respectively.

Turning to `CCNC(=O)N1CCC(O)CC1` [SS-4002, CCNC(=O)N1CCC(O)CC1], in the data set on Huh7.5 cells [1], the “Cell viability (fold DMSO) Mean” value was determined as 1.05 fold DMSO. The figures for the activity at 50 µM in data set [3] (setting [11]) and in data set [5] were 103% and 98%, respectively.

`CSc1ccccc1N1CCNCC1` [SS-4074, CSc1ccccc1N2CCNCC2]: in the data set on Huh7.5 cells [1], the “Cell viability (fold DMSO) Mean” value stood at 0.92 fold DMSO. Further, the activity at 50 µM in data set [3] (setting [11]) was 79%; in [5] it was 100%.

Consider `COc1ccc2cc[nH]c2n1` [SS-4327, COc1ccc2cc[nH]c2n1], for which the “Cell viability (fold DMSO) Mean” value in the data set on Huh7.5 cells [1] is 1.01 fold DMSO. Also, the figures for the activity at 50 µM in data set [3] (setting [11]) and in data set [5] were 98% and 108%, respectively.

As for `O=C(O)[C@@H](O)c1ccc(Br)cc1` [SS-4660, O[C@H](C(=O)O)c1ccc(Br)cc1], in the data set on Huh7.5 cells [1], the “Cell viability (fold DMSO) Mean” value was determined as 1.10 fold DMSO. In addition, the activity at 50 µM in data set [3] (setting [11]) stood at 104%; in data set [5] it was 102%.

For `Nc1cncnc1` [SS-6051, Nc1cncnc1], the “Cell viability (fold DMSO) Mean” value in the data set with Huh7.5 cells [1] came to 0.96 fold DMSO. The values for the activity at 50 µM in data set [3] (setting [11]) and in [5] were 104% and 105%, respectively.

As for `COc1cc2c(cc1O)CN(C)C[C@H]2c1ccc(O)cc1` [cherylline], the pEC50 in data set [8] was 5.06; in data set [10], 4.69. Further, the 50% cytotoxic concentration (CC50) with Huh7.5 cells [9] is greater than 250 µM.

(Values after article PMC9933715 (Antimicrobial Agents and Chemotherapy, 2023).)
